23 molecules from US10913727B2, “Modulators of the integrated stress pathway” (Calico Life Sciences LLC, priority 2016, dated 2021) can be followed below.

pEC50: −log10 of the molar value. Where only a bound is given, the exact number is not on record here.

By pEC50 is commonly meant −log10 of the EC50, conventionally taken in molar units.

The assay concerns HEK293T cells carrying the ATF4 luciferase reporter. Kind of assay: ATF4-Luc assay, in vitro model of Vanishing Cell White Matter Disease (VWMD). In kind it is cell-based. As to conditions: Homo sapiens, HEK-293T, 1 μg/mL tunicamycin, 7 hours, One Glo luminescence. In short, it runs like this: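 Stable HEK293T line with human ATF4 5′-UTR–firefly luciferase reporter treated with 1 μg/mL tunicamycin plus 200 nM compound for 7 h. Luminescence read; EC50 derived.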
As for `O=C(COc1ccc(Cl)c(F)c1)NC12CCC(NC(=O)c3ccc(-c4ccc(F)cc4)cn3)(CC1)CC2O` (centres unmarked) [Compound 939, N-{4-[2-(4-chloro-3-fluorophenoxy)acetamido]-3-hydroxybicyclo[2.2.2]octan-1-yl}-5-(4-fluorophenyl)pyridine-2-carboxamide], the pEC50 was < 5.70.

In the case of `Cc1cc2c(NC34CC(NC(=O)COc5ccc(Cl)c(F)c5)(C3)C4)nccn2n1` [Compound 394, 2-(4-chloro-3-fluorophenoxy)-N-{3-[(2-methylpyrazolo[1,5-a]pyrazin-4-yl)amino]bicyclo[1.1.1]pentan-1-yl}acetamide], the pEC50 is > 7.30.

As for `CC(C)c1ccc(C(=O)NC23CC(NC(=O)COc4ccc(Cl)c(F)c4)(C2)C3)cn1` [Compound 642, N-{3-[2-(4-chloro-3-fluorophenoxy)acetamido]bicyclo[1.1.1]pentan-1-yl}-6-(propan-2-yl)pyridine-3-carboxamide], the pEC50 was 5.70 to 6.00.

On to `O=C(COc1ccc(Cl)c(F)c1)NC12CC(Nc3cncc(C4CC4)n3)(C1)C2` [Compound 714, 2-(4-chloro-3-fluorophenoxy)-N-{3-[(6-cyclopropylpyrazin-2-yl)amino]bicyclo[1.1.1]pentan-1-yl}acetamide], for which the pEC50 is 6.00 to 6.60.

With `COc1cc(OC)nc(C(=O)NC23CC(NC(=O)COc4ccc(Cl)c(F)c4)(C2)C3)n1` [Compound 116, N-{3-[2-(4-chloro-3-fluorophenoxy)acetamido]bicyclo[1.1.1]pentan-1-yl}-4,6-dimethoxypyrimidine-2-carboxamide], the negative-log EC50 (pEC50) is < 5.70.

As to `O=C(COc1ccc(Cl)c(F)c1)NC12CC(NC(=O)c3ncn4ccccc34)(C1)C2` [Compound 782, N-{3-[2-(4-chloro-3-fluorophenoxy)acetamido]bicyclo[1.1.1]pentan-1-yl}imidazo[1,5-a]pyridine-1-carboxamide], the pEC50 is < 5.70.

In the case of `O=C(COc1ccc(Cl)c(F)c1)NC12CC(NC(=O)c3ccc(OC(F)(F)F)nc3)(C1)C2` [Compound 132, N-{3-[2-(4-chloro-3-fluorophenoxy)acetamido]bicyclo[1.1.1]pentan-1-yl}-6-(trifluoromethoxy)pyridine-3-carboxamide], the negative logarithm of the EC50 (pEC50) was 6.60 to 7.30.

As to `O=C(COc1ccc(C(F)(F)F)nc1)NC12CC(NC(=O)c3cnc(C(F)F)cn3)(C1)C2` [Compound 455, 5-(difluoromethyl)-N-[3-(2-{[6-(trifluoromethyl)pyridin-3-yl]oxy}acetamido)bicyclo[1.1.1]pentan-1-yl]pyrazine-2-carboxamide], the pEC50 is < 5.70.

Regarding `O=C(COc1ccc(Cl)c(F)c1)NC12CCC(NC(=O)c3cnccn3)(CC1)C(O)C2` (centres unmarked) [Compound 219, N-{4-[2-(4-chloro-3-fluorophenoxy)acetamido]-2-hydroxybicyclo[2.2.2]octan-1-yl}pyrazine-2-carboxamide], the pEC50 is 6.60 to 7.30.

For the molecule `COc1cccc(C(=O)NC23CC(NC(=O)COc4ccc(Cl)c(F)c4)(C2)C3)c1F` [Compound 519, N-{3-[2-(4-chloro-3-fluorophenoxy)acetamido]bicyclo[1.1.1]pentan-1-yl}-2-fluoro-3-methoxybenzamide], the negative-log EC50 (pEC50) is 6.60 to 7.30.

Consider `Cc1nc(C)c(C(=O)NC23CCC(NC(=O)COc4ccc(Cl)c(F)c4)(CC2)C(O)C3)s1` (centres unmarked) [Compound 446, N-{4-[2-(4-chloro-3-fluorophenoxy)acetamido]-3-hydroxybicyclo[2.2.2]octan-1-yl}-2,4-dimethyl-1,3-thiazole-5-carboxamide], for which the pEC50 is 6.00 to 6.60.

Regarding `COc1cncc(NC23CC(NC(=O)COc4ccc(Cl)c(F)c4)(C2)C3)n1` [Compound 756, 2-(4-chloro-3-fluorophenoxy)-N-{3-[(6-methoxypyrazin-2-yl)amino]bicyclo[1.1.1]pentan-1-yl}acetamide], the negative logarithm of the EC50 (pEC50) was 6.00 to 6.60.

For the molecule `O=C(COc1ccc(Cl)c(F)c1)NC12CC(NC(=O)c3cc(N4CCOCC4)ccn3)(C1)C2` [Compound 180, N-{3-[2-(4-chloro-3-fluorophenoxy)acetamido]bicyclo[1.1.1]pentan-1-yl}-4-(morpholin-4-yl)pyridine-2-carboxamide], the pEC50 was 5.70 to 6.00.

For the molecule `O=C(COc1ccc(Cl)c(F)c1)NC12CC(Nc3nc4cc(Cl)ccc4o3)(C1)C2` [Compound 369, N-{3-[(5-chloro-1,3-benzoxazol-2-yl)amino]bicyclo[1.1.1]pentan-1-yl}-2-(4-chloro-3-fluorophenoxy)acetamide], the negative-log EC50 (pEC50) was 5.70 to 6.00.

For `NS(=O)(=O)c1ccc(C(=O)NC23CC(NC(=O)COc4ccc(Cl)c(F)c4)(C2)C3)o1` [Compound 905, N-{3-[2-(4-chloro-3-fluorophenoxy)acetamido]bicyclo[1.1.1]pentan-1-yl}-5-sulfamoylfuran-2-carboxamide], the pEC50 was < 5.70.

Regarding `Cc1ccncc1C(=O)NC12CC(NC(=O)COc3ccc(Cl)c(Cl)c3)(C1)C2` [Compound 736, N-{3-[2-(3,4-dichlorophenoxy)acetamido]bicyclo[1.1.1]pentan-1-yl}-4-methylpyridine-3-carboxamide], the pEC50 is < 5.70.

For `O=C(COc1ccc(Cl)c(F)c1)NC12CC(NC(=O)c3ccc4cccnc4n3)(C1)C2` [Compound 669, N-{3-[2-(4-chloro-3-fluorophenoxy)acetamido]bicyclo[1.1.1]pentan-1-yl}-1,8-naphthyridine-2-carboxamide], the pEC50 is 6.00 to 6.60.

As for `Cn1cc(Cl)c(C(=O)NC23CC(NC(=O)COc4ccc(Cl)c(F)c4)(C2)C3)n1` [Compound 871, 4-chloro-N-{3-[2-(4-chloro-3-fluorophenoxy)acetamido]bicyclo[1.1.1]pentan-1-yl}-1-methyl-1H-pyrazole-3-carboxamide], the pEC50 was 6.00 to 6.60.

On to `NS(=O)(=O)c1ccc(C(=O)NC23CC(NC(=O)COc4ccc(Cl)c(F)c4)(C2)C3)cn1` [Compound 325, N-{3-[2-(4-chloro-3-fluorophenoxy)acetamido]bicyclo[1.1.1]pentan-1-yl}-6-sulfamoylpyridine-3-carboxamide], for which the negative-log EC50 (pEC50) was < 5.70.

On to `O=C(COc1ccc(Cl)c(F)c1)NC12CC(NS(=O)(=O)c3ccc(Cl)cn3)(C1)C2` [Compound 661, 2-(4-chloro-3-fluorophenoxy)-N-{3-[(5-chloropyridine-2-sulfonyl)amino]bicyclo[1.1.1]pentan-1-yl}acetamide], for which the pEC50 was < 5.70.

For the molecule `N#Cc1ccc(C(=O)NC23CCC(NC(=O)COc4ccc(Cl)c(F)c4)(CC2)C(O)C3)nc1` (centres unmarked) [Compound 937, N-{4-[2-(4-chloro-3-fluorophenoxy)acetamido]-3-hydroxybicyclo[2.2.2]octan-1-yl}-5-cyanopyridine-2-carboxamide], the pEC50 is > 7.30.

For the molecule `O=C(COc1ccc(Cl)c(F)c1)NC12CC(Nc3cnn(CC(F)(F)F)c(=O)c3Cl)(C1)C2` [Compound 416, 2-(4-chloro-3-fluorophenoxy)-N-(3-{[5-chloro-6-oxo-1-(2,2,2-trifluoroethyl)-1,6-dihydropyridazin-4-yl]amino}bicyclo[1.1.1]pentan-1-yl)acetamide], the negative logarithm of the EC50 (pEC50) was < 5.70.

Regarding `Cc1scnc1C(=O)NC12CC(NC(=O)COc3ccc(Cl)c(F)c3)(C1)C2` [Compound 541, N-{3-[2-(4-chloro-3-fluorophenoxy)acetamido]bicyclo[1.1.1]pentan-1-yl}-5-methyl-1,3-thiazole-4-carboxamide], the pEC50 is 5.70 to 6.00.
